Columns and labels:
HCT-116 cells = test: Metabolic labelling of nascent proteins in HCT116 cells; format: cell-based, human
Method: Metabolic Labelling Assays in HCT116 Cells
HCT116 cells were counted using an automated cell counter (BioRad TC20) immediately prior to each experiment. 3 ml of HCT116 cells at a density of 0.166x10^6 cells/mL were seeded to 6-well plates (0.5x10^6 cells/well) and then incubated at 37 °C and 5% CO 2 for 24 h. The compounds were dissolved in DMSO to make drug stocks (10 mM). The stock solutions were diluted with DMEM high glucose culture medium lacking methionine and cysteine to make a fresh working solution immediately prior to each test. Cells were washed twice and 1ml of fresh DMEM lacking methionine and cysteine was added to each well.
Subsequently, the cells were treated with 250 µl of compound solutions in a total volume of 1 ,250 µl/well.
The plate was then incubated at 37 °C and 5% CO 2 for 30 min before 100 µCi 35S-labelled methionine/cysteine was added (Expre35s35s protein labelling mix). Plates were incubated for a further 30 min, then media collected and cells harvested by scraping after four washes in ice-cold PBS. Total protein was acquired by RIPA extraction from the cell pellet, cytoplasmic fraction was acquired by partial permeabilization of the outer cell membranes with 0.15% Digitonin followed by centrifugation, secreted proteins were acquired by TCA precipitation of the media. […]

[1] = tested on: Sec61-mediated protein translocation; test: In vitro translation and Sec61-dependent translocation into ER microsomes; format: biochemical, canine
Description: (§1) In Vitro Membrane Translocation Assays.
(§2) Unless otherwise stated, all cDNAs are of human origin and as previously described: CytB5OPG2,16 GypC,17 ppαF (Saccharomyces cerevisiae),16 ppcecAOPG2 (Hyalophora cecropia),16 PPL (Bos Taurus),16 Sec61βOPG216 and VCAM1.17 Ii encodes residues 17 to 232 of the short form of human HLA class II histocompatibility antigen gamma chain (Ii; P04232, isoform 2). Linear DNA templates were generated by PCR and transcribed into RNA using T7 or SP6 polymerase (Promega).
(§3) In vitro translation and translocation into ER microsomes
(§4) Translation reactions (20 μL) were performed in nuclease-treated rabbit reticulocyte lysate (Promega) in the presence of EasyTag EXPRESS 35S Protein Labelling Mix containing [35S] methionine (Perkin Elmer) (0.533 MBq; 30.15 TBq/mmol). Amino acids minus methionine (Promega) were added to 25 µM each, […]
(§5) equivalent volume of DMSO, and nuclease-treated ER microsomes (from stock with OD280 = 44/mL) were added to 6.5% (v/v). Lastly, 10% volume of in vitro transcribed mRNA (from 200-1000 ng/μL stocks) encoding the relevant precursor protein was added and translation reactions performed for 20 min at 30°C. Following incubation with 0.1 mM puromycin for 5 min at 30°C to ensure translational termination and ribosome release, membrane-associated fractions were isolated by centrifugation through an 80 μL high-salt cushion (0.75 M sucrose, 0.5 M KOAc, 5 mM Mg(OAc)2, 50 mM Hepes-KOH, pH 7.9) at 100,000 x g for 10 min at 4°C in a TLA100 rotor (Beckmann). Membrane pellets were suspended directly in SDS (sodium dodecyl sulphate) sample buffer (0.02% bromophenol blue, 62.5 mM, 4% (w/v) SDS, 10% (v/v) glycerol, pH 7.6, 1 M dithiothreitol) and, where indicated, treated with 1,000 U of Endoglycosidase H (New England Biolabs) for 30 min at 37°C prior to analysis. All samples were denatured for 10 min at 70°C prior to resolution by SDS-PAGE (12% or 16% polyacrylamide gels, 120 V, 120 min), gels were fixed (20% MeOH, 10% AcOH) for 5 min, dried (BioRad gel dryer) for 2 h at 65°C and, following exposure to a phosphorimaging plate for 24-72 h, radiolabelled products were visualised using a Typhoon FLA-7000 (GE Healthcare).
(§6) Quantitative analysis of Ii membrane insertion was performed using AIDA v.5.0 (Raytest Isotopenmeβgeräte) whereby the ratio of the signal intensity for the 2Gly/0Gly forms was used as a read-out to estimate efficiency of integration into the ER membrane. This value was then expressed relative to the matched DMSO control in order to derive the mean relative ER insertion from three independent experiments (n=3). Statistical significance of the effectiveness of Ipom-F analogues (RM one-way ANOVA) was determined using Tukey’s multiple comparisons test. IC50 value estimates were determined using non-linear regression to fit data to a curve of variable slope (four parameters) using the least squares fitting method in which the bottom and top plateaus of the curve were defined as 0% and 100% respectively. The differences between the estimated IC50 values for the three compounds analysed were statistically significant (****) according to the extra-sum-of-squares F test. Statistical analyses and IC50 estimates were performed using Prism 7.0d (GraphPad) with statistical significance given as n.s., non - significant and ****, P < 0.0001.
(§7) U2-OS secNLuc-ATZ Secretion and Cell Viability Assays

[2] = target: T1, Sec61-mediated protein translocation (Canis lupus familiaris, UniProt P38377); test: as above; format: biochemical, canine
T1 construct: ER microsomes derived from canine pancreas; from tissue; host or cells: canine pancreas ER microsomes (nuclease-treated)
T1 sequence (P38377 whole entry): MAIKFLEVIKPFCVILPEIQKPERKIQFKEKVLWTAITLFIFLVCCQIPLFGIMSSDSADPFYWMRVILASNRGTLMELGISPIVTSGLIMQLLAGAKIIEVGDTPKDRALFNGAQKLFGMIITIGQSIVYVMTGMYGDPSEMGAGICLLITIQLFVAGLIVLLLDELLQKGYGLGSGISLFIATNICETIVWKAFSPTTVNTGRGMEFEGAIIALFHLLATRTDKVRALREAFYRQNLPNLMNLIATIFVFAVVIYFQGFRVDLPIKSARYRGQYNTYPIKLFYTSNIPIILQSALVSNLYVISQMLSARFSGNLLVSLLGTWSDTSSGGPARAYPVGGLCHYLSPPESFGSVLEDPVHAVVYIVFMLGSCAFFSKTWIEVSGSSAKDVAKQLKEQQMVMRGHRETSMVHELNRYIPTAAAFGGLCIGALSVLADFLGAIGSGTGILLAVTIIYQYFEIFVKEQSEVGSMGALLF
T1 sequence (P60467 whole entry, further chain): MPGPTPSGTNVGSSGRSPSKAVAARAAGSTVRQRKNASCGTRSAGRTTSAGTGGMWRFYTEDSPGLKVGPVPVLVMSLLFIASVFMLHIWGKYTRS
T1 sequence (P60058 whole entry, further chain): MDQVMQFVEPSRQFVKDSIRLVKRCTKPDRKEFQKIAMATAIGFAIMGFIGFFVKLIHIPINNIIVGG
Description: as §1, §2, §3, §4, §5, §6, §7

C/C=C(\C)C(=O)O[C@@H]1[C@@H](O)[C@@H]2O[C@H]3[C@H](O[C@@H](CCCCC)CCCCCCC(=O)CCC(=O)OC[C@@H](O2)[C@H]1OC(=O)/C=C/c1ccccc1)O[C@H](C)[C@H](OC(C)=O)[C@@H]3O [ipomoeassin F]
inhibition of production of secreted proteins (HCT-116 cells; HCT-116, 100 nM, 35S labelling): strong inhibition
nascent protein biogenesis in total cellular lysates and cytosolic fractions (HCT-116 cells; HCT-116, 35S labelling): lack of inhibition
membrane insertion of type III integral membrane protein glycophorin C [1]: no effect
in vitro integration of tail-anchored proteins (Sec61βOPG2, Cytb5OPG2) ([1]; Sec61-independent control substrates): unaffected
IC50 [2]: ~50 nM
membrane insertion of type I and type II integral membrane proteins (VCAM1, Ii) [2]: potently inhibits
translocation of short secretory protein prepro-cecropin A [2]: only a marginal impact
translocation of secretory proteins bovine preprolactin and yeast prepro-alpha-factor ([2]; 1 μM compound): almost completely prevented
inhibition of Ii membrane insertion ([2]; type II membrane protein Ii, ER microsomes): strongly inhibit membrane insertion

Reference: article PMC6627486, “Ipomoeassin F Binds Sec61α to Inhibit Protein Translocation” (Journal of the American Chemical Society, 2019)
